From patent US12606561B2, “Substituted pyrazolo[1,5-a][1,3,5]triazines as CDK inhibitors” (QURIENT CO., LTD., priority 2018, dated 2026)
Where two headings read alike, the source gives them in different places.

Legend:
Experiment in all cases: In vitro IC50 profile for CDKs family kinase (33PanQinase Activity Assay, ProQinase)
Assay type in all cases: biochemical
[1] = target: T1, 28 CDKs family protein kinases (Homo sapiens, UniProt P06493); conditions: read-out: CDK7 selectivity profile in CDKs family, IC50
T1 construct: purchased ProQinase GmbH; host or cells: Sf9 insect cells or E. coli
Description: (§1) The IC50 profile of compound 11 was determined using 28 CDKs family protein kinases through ProQinase GmbH (Freiburg, Germany). All the protocol and materials had been provided by ProQinase GmbH. Briefly, in the process, 90 μl H2O were added to each well of a compound dilution plate. To minimize potential precipitation, the H2O was added to the plate only a few minutes before the transfer of the compound solutions into the assay plates. The plate was shaken thoroughly, resulting in a “compound dilution plate/10% DMSO”. The compound dilution plate(s) were discarded at the end of the working day. For the assays (see below), 5 μl solution from each well of the compound dilution plate were transferred into the assay plates. The final volume of the assay was 50 μl. All compounds were tested at 10 final assay concentrations in the range from 1×10^−05 M to 3×10^−10 M. The final DMSO concentration in the reaction cocktails was 1% in all cases. All protein kinases provided by ProQinase were expressed in Sf9 insect cells or in E. coli as recombinant GST-fusion proteins or His-tagged proteins, either as full-length or enzymatically active fragments. All kinases were produced from human cDNAs and purified by either GSH affinity chromatography or immobilized metal affinity chromatography. The purity of the protein kinases was examined by SDS-PAGE/Coomassie staining, the identity was checked by mass spectroscopy. Kinases from external vendors, Carna Biosciences Inc.; Invitrogen Corp.; and Millipore Corp., were expressed, purified and quality-controlled by virtue of the vendors readings. A radiometric protein kinase assay (33PanQinase® Activity Assay) was used for measuring the kinase activity of the 28 protein kinases. All kinase assays were performed in 96-well FlashPlates™ from PerkinElmer (Boston, MA, USA) in a 50 μl reaction volume. The reaction cocktails were incubated at 30° C. for 60 minutes. The reaction was stopped with 50 μl of 2% (v/v) H3PO4, plates were aspirated and washed two times with 200 μl 0.9% (w/v) NaCl. Incorporation of ^33Pi was determined with a microplate scintillation counter (Microbeta, Wallac). All assays were performed with a BeckmanCoulter/SAGIAN™ Core System. As part of the data evaluation the low control value from a particular plate was subtracted from the high control value as well as from all 80 “compound values” of the corresponding plate. The residual activity (in %) for each well of a particular plate was calculated by using the following formula: Res. Activity (%)=100×[(cpm of compound−low control)/(high control−low control)].

[2] = target: T2, 28 CDKs family protein kinases (Homo sapiens, UniProt P11802); conditions: read-out: CDK7 selectivity profile in CDKs family, IC50
T2 construct: purchased ProQinase GmbH; host or cells: Sf9 insect cells or E. coli
Description: as §1

[3] = target: T3, 28 CDKs family protein kinases (Homo sapiens, UniProt P24941); conditions: read-out: CDK7 selectivity profile in CDKs family, IC50
T3 construct: purchased ProQinase GmbH; host or cells: Sf9 insect cells or E. coli
Description: as §1

[4] = target: T4, 28 CDKs family protein kinases (Homo sapiens, UniProt P49336); conditions: CDK8/CycC; read-out: CDK7 selectivity profile in CDKs family, IC50
T4 construct: purchased ProQinase GmbH; host or cells: Sf9 insect cells or E. coli
Description: as §1

[5] = target: T5, 28 CDKs family protein kinases (Homo sapiens, UniProt P50613); conditions: CDK7/CycH/MAT1; read-out: CDK7 selectivity profile in CDKs family, IC50
T5 construct: purchased ProQinase GmbH; host or cells: Sf9 insect cells or E. coli
Description: as §1

[6] = target: T6, 28 CDKs family protein kinases (Homo sapiens, UniProt P50750); conditions: read-out: CDK7 selectivity profile in CDKs family, IC50
T6 construct: purchased ProQinase GmbH; host or cells: Sf9 insect cells or E. coli
Description: as §1

[7] = target: T7, 28 CDKs family protein kinases (Homo sapiens, UniProt Q00526); conditions: read-out: CDK7 selectivity profile in CDKs family, IC50
T7 construct: purchased ProQinase GmbH; host or cells: Sf9 insect cells or E. coli
T7 sequence (Q00526 whole entry): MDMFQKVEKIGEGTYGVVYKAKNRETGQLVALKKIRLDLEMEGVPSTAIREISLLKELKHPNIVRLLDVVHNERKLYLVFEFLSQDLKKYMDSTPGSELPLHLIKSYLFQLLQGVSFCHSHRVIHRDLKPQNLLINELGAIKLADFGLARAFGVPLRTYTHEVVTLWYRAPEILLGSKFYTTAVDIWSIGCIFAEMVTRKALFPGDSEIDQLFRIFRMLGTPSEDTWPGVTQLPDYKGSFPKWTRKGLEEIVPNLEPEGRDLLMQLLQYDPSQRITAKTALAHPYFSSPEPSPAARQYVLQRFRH
T7 sequence (P24863 whole entry partner): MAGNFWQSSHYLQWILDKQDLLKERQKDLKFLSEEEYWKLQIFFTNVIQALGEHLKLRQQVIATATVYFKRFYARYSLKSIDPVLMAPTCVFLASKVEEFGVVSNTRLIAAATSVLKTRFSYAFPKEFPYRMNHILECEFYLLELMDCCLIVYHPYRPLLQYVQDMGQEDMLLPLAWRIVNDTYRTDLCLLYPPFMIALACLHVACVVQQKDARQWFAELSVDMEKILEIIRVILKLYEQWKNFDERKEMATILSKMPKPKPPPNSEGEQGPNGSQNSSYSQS
Description: as §1

[8] = target: T8, 28 CDKs family protein kinases (Homo sapiens, UniProt Q00534); conditions: read-out: CDK7 selectivity profile in CDKs family, IC50
T8 construct: purchased ProQinase GmbH; host or cells: Sf9 insect cells or E. coli
Description: as §1

[9] = target: T9, 28 CDKs family protein kinases (Homo sapiens, UniProt Q00536); conditions: CDK16/CycY; read-out: CDK7 selectivity profile in CDKs family, IC50
T9 construct: purchased ProQinase GmbH; host or cells: Sf9 insect cells or E. coli
T9 sequence (Q00536 whole entry): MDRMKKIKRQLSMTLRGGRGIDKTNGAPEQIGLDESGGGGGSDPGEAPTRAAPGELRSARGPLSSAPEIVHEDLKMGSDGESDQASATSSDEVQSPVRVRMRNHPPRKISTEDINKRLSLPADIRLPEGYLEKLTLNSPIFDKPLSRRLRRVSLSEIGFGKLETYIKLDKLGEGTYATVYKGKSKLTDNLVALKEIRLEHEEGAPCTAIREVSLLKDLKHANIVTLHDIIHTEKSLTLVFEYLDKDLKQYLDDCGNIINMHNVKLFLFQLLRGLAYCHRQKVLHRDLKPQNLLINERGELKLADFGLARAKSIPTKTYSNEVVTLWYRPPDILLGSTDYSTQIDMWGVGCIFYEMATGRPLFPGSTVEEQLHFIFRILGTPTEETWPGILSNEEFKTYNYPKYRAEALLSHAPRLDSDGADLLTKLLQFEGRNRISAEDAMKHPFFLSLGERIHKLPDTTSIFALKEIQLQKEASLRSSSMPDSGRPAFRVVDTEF
T9 sequence (Q8ND76 whole entry partner): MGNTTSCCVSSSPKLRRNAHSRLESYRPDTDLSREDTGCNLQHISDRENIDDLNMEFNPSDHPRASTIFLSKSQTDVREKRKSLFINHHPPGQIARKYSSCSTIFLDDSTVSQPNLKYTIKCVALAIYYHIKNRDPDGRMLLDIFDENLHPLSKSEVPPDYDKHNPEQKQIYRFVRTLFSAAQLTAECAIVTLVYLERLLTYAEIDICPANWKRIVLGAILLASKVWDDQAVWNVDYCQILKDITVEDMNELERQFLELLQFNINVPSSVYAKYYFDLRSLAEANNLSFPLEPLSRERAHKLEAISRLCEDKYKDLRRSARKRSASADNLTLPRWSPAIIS
Description: as §1

[10] = target: T10, 28 CDKs family protein kinases (Homo sapiens, UniProt Q00537); conditions: CDK17/p35NCK; read-out: CDK7 selectivity profile in CDKs family, IC50
T10 construct: purchased ProQinase GmbH; host or cells: Sf9 insect cells or E. coli
Description: as §1

[11] = target: T11, 28 CDKs family protein kinases (Homo sapiens, UniProt Q07002); conditions: CDK18/CycY; read-out: CDK7 selectivity profile in CDKs family, IC50
T11 construct: purchased ProQinase GmbH; host or cells: Sf9 insect cells or E. coli
Description: as §1

[12] = target: T12, 28 CDKs family protein kinases (Homo sapiens, UniProt Q14004)
T12 construct: purchased ProQinase GmbH; host or cells: Sf9 insect cells or E. coli
T12 sequence (Q14004 whole entry): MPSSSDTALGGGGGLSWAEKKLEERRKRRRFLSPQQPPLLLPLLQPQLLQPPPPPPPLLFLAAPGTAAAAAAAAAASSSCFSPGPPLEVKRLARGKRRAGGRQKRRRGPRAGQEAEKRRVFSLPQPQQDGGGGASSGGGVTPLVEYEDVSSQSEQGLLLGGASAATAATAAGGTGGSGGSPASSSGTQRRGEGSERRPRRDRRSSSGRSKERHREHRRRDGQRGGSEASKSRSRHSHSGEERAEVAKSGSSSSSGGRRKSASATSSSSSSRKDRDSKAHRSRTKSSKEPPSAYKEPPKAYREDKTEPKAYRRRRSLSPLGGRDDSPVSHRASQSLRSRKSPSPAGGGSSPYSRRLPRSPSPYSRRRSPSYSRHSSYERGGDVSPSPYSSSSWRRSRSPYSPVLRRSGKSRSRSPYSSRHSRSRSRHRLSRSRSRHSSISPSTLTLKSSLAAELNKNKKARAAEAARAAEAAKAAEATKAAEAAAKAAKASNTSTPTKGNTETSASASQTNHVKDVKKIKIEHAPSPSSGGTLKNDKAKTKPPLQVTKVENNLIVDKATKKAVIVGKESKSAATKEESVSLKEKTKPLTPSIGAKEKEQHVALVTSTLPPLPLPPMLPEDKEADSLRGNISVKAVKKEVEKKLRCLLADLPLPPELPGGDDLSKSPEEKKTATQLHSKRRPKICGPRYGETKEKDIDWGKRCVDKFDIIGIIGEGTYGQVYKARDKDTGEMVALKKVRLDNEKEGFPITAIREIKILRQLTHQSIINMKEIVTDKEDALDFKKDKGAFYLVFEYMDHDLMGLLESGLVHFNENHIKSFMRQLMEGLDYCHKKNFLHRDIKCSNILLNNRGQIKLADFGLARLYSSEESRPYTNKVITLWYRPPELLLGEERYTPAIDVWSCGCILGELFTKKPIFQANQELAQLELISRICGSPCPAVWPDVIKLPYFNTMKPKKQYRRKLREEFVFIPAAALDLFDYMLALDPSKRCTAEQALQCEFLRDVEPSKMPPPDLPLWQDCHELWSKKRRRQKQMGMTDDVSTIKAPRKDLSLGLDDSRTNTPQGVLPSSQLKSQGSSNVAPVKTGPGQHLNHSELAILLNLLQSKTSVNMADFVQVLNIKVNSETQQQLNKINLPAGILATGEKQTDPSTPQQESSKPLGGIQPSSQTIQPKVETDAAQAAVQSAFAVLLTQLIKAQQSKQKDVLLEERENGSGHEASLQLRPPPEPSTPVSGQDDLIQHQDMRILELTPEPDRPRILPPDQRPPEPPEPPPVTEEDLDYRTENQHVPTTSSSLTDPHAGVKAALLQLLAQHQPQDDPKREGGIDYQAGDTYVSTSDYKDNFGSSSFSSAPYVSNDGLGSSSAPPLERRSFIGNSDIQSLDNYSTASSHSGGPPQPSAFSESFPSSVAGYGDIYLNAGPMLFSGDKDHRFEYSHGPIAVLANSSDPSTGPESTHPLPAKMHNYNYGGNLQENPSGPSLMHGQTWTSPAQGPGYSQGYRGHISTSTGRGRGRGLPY
T12 sequence (O75909 whole entry partner): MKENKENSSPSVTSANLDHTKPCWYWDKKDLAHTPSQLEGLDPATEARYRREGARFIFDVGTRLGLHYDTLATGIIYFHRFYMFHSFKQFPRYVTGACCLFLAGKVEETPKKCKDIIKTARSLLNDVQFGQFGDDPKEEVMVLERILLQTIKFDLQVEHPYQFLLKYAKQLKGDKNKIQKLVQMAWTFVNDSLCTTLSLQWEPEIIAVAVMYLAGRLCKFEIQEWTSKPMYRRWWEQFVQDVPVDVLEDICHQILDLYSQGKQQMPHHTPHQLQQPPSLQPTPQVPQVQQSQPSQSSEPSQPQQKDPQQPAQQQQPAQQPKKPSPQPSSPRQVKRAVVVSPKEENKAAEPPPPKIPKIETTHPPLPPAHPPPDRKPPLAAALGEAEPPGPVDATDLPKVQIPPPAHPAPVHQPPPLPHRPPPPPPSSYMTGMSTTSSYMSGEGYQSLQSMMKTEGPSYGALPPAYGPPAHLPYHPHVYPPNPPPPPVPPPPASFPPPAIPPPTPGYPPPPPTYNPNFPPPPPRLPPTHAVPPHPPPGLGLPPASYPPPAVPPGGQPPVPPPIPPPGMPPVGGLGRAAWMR
Description: as §1

[13] = target: T13, 28 CDKs family protein kinases (Homo sapiens, UniProt Q8IZL9); conditions: read-out: CDK7 selectivity profile in CDKs family, IC50
T13 construct: purchased ProQinase GmbH; host or cells: Sf9 insect cells or E. coli
Description: as §1

[14] = target: T14, 28 CDKs family protein kinases (Homo sapiens, UniProt Q9BWU1); conditions: CDK19/CycC; read-out: CDK7 selectivity profile in CDKs family, IC50
T14 construct: purchased ProQinase GmbH; host or cells: Sf9 insect cells or E. coli
Description: as §1

[15] = target: T15, 28 CDKs family protein kinases (Homo sapiens, UniProt Q9NYV4); conditions: CDK12wt/CycK; read-out: CDK7 selectivity profile in CDKs family, IC50
T15 construct: purchased ProQinase GmbH; host or cells: Sf9 insect cells or E. coli
T15 sequence (Q9NYV4 whole entry): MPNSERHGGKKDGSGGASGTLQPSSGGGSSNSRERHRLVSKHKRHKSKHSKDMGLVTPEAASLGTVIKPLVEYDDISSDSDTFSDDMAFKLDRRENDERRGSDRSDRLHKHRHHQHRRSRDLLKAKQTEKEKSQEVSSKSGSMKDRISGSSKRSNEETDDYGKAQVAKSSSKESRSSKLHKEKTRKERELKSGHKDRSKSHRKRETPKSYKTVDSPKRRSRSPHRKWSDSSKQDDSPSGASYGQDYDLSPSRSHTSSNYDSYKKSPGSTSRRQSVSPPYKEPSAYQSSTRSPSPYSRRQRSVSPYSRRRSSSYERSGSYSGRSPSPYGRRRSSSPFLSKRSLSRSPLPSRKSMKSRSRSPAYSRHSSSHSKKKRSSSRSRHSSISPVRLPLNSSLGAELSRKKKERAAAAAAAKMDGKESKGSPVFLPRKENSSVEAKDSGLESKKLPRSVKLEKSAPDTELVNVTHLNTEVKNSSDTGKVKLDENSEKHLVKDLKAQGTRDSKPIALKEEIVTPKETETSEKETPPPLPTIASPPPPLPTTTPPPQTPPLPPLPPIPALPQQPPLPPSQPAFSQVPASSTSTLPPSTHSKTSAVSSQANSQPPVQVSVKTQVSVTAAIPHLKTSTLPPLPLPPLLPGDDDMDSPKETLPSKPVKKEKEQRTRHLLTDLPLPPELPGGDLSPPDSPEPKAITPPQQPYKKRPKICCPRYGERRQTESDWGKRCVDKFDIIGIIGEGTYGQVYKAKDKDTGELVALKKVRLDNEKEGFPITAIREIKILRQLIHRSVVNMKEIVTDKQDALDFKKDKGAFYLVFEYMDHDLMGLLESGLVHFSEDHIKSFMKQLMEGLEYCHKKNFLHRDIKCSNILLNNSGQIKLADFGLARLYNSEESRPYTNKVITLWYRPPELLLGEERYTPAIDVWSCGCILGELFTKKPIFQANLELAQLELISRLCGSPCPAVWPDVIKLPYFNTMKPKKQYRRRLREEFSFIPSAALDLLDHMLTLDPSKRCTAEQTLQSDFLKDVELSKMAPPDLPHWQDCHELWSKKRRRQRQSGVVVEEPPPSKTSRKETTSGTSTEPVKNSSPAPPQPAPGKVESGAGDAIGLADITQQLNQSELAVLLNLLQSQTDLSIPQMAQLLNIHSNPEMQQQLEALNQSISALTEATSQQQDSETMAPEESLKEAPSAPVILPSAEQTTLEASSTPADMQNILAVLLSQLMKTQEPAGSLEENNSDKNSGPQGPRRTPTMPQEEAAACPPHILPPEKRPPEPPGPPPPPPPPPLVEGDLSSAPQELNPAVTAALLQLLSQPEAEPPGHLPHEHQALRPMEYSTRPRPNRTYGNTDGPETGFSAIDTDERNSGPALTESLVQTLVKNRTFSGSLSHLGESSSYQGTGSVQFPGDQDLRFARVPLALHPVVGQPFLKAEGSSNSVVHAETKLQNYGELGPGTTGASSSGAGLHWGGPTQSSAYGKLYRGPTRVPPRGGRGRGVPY
T15 sequence (O75909 whole entry partner): as the sequence (O75909 whole entry partner) above
Description: as §1

CC(C)c1cnn2c(NCc3ccccc3-c3nccc4cc(NC(=O)/C=C/CN(C)C)ccc34)nc(N3CCC(N)CC3)nc12 [Compound 11]
IC50 ([1]; CDK1/CycA2): > 10 µM | IC50 ([1]; CDK1/CycB1): > 10 µM | IC50 ([1]; CDK1/CycE1): > 10 µM | IC50 ([2]; CDK4/CycD1): > 10 µM | IC50 ([2]; CDK4/CycD2): > 10 µM | IC50 ([2]; CDK4/CycD3): > 10 µM | IC50 ([3]; CDK2/CycA2): > 10 µM | IC50 ([3]; CDK2/CycD1): > 10 µM | IC50 ([3]; CDK2/CycE1): > 10 µM | IC50 [4]: > 10 µM | IC50 [5]: 0.025 µM | IC50 ([6]; CDK9/CycK): > 10 µM | IC50 ([6]; CDK9/CycT1): > 10 µM | IC50 ([7]; CDK3/CycC): > 10 µM | IC50 ([7]; CDK3/CycE1): > 10 µM | IC50 ([8]; CDK6/CycD1): > 10 µM | IC50 ([8]; CDK6/CycD2): > 10 µM | IC50 ([8]; CDK6/CycD3): > 10 µM | IC50 [9]: > 10 µM | IC50 [10]: > 10 µM | IC50 [11]: > 10 µM | IC50 [12]: > 10 µM | IC50 ([13]; CDK20/CycH): > 10 µM | IC50 ([13]; CDK20/CycT1): > 10 µM | IC50 [14]: > 10 µM | IC50 [15]: > 10 µM
